Tests used:
[1] = target: T1, Cyclooxygenase (Rattus norvegicus, UniProt Q63921); test: ARBC whole cell cyclooxygenase assay (PGF2α formation in RBL-1 cells, A23187 stimulated); format: cell-based; settings: RBL-1 cells; for IC50: read-out: ARBC IC50 (inhibition of PGF2α formation); for inhibition at 16 µM: read-out: ARBC % inhibition of PGF2α
T1 construct: host or cells: RBL-1 rat basophilic leukemia cells
T1 sequence (Q63921 27-602): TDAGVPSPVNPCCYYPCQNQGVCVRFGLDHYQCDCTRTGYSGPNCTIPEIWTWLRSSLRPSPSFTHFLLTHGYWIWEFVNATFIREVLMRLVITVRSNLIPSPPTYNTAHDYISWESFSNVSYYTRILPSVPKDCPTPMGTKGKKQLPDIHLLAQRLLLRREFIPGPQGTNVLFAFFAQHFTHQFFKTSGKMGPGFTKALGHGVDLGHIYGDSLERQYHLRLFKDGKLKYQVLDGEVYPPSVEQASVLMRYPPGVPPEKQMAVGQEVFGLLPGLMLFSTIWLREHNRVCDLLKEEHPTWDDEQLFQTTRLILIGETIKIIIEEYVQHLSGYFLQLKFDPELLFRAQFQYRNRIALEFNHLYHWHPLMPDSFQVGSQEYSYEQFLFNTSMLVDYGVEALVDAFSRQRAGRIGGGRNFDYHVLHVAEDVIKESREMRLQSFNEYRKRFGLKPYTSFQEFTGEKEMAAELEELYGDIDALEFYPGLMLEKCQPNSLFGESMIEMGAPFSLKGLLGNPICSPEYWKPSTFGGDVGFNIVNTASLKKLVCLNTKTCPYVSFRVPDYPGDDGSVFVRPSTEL
Experimental: (§1) ARBL/ARBC Whole Cell 5-Lipoxygenase and Cyclooxygenase Assays
(§2) The rat basophilic leukemia cell line (RBL-1) was obtained from the American Type Culture Collection (Rockville, MD).
(§3) Radioimmunoassay (RIA) kits of LTB4 and PGF2α were obtained from Amersham (Arlington Heights, IL) and Seragen (Boston, MA), respectively.
(§4) RBL-1 cells are grown in suspension culture in Eagle's minimum essential medium supplemented with 12% fetal bovine serum at 37° C. in an incubator supplied with air-5% carbon dioxide. Cells are harvested by centrifugation. They are washed with cold phosphate buffered saline pH 7.4 (PBS; NaCl, 7.1 g; Na2 HPO4, 1.15 g; KH2 PO4, 0.2 g; and KCl, 0.2 g/l). Cells are finally suspended in PBS containing 1.0 mM calcium at a density of 2×10^6 cells/ml. Cells are incubated with and without test agent (in DMSO) (1% DMSO is without effect on arachidonic acid metabolism) for ten minutes at room temperature. Calcium ionophore A23187 (5 μM) is added and cells are incubated for seven minutes at 37° C. The reaction is stopped by chilling the tubes on ice for ten minutes. Cells are separated by centrifugation and the supernatant is stored at -20° C. Aliquots (100 μl) are analyzed for LTB4 and PGF2α using radioimmunoassay kits as provided by the supplier.
(§5) Tables 1-4 contain biochemical data obtained from this whole cell assay either as IC50 s which are calculated as the amount of test compound causing 50% inhibition of LTB4 or PGF2α formation or % inhibition of LTB4 or PGF2α at the indicated amount expressed as μM.

[2] = target: T2, 5-Lipoxygenase (Rattus norvegicus, UniProt P12527); test: ARBL whole cell 5-lipoxygenase assay (LTB4 formation in RBL-1 cells, A23187 stimulated); format: cell-based; settings: RBL-1 cells; for IC50: read-out: ARBL IC50 (inhibition of LTB4 formation); for inhibition at 16 µM: read-out: ARBL % inhibition of LTB4
T2 construct: host or cells: RBL-1 rat basophilic leukemia cells
T2 sequence (P12527 1-673): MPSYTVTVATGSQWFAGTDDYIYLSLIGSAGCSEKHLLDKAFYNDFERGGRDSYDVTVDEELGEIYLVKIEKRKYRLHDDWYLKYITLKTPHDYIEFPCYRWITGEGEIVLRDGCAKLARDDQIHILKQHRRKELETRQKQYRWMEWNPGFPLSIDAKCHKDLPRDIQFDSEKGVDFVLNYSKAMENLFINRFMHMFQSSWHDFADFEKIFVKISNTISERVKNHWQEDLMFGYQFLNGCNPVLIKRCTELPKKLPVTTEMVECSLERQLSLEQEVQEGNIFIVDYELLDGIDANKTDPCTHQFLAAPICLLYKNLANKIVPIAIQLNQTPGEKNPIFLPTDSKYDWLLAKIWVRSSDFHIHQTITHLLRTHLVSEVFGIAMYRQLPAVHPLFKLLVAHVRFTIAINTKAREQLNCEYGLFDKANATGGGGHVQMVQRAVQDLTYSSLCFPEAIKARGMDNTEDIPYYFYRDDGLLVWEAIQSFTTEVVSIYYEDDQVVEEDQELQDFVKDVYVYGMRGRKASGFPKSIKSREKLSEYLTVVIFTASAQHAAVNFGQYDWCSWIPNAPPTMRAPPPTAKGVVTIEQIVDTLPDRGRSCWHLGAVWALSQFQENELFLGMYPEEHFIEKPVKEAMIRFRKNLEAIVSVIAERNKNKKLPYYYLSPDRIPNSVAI
Experimental: as §1, §2, §3, §4, §5

IC50 [1] [µM]	IC50 [2] [µM]	inhibition at 16 µM [1] [%]	inhibition at 16 µM [2] [%]	Compound
5	0.18	–	–	CC(=O)N(O)Cc1ccccc1Nc1c(Cl)ccc(C)c1Cl [Example 54, N-[[2-[(2,6-Dichloro-3-methylphenyl)amino]phenyl]methyl]-N-hydroxyacetamide]
14	1.1	–	–	CCOC(=O)CC(=O)N(O)Cc1c(C)n(C(=O)c2ccc(Cl)cc2)c2ccc(OC)cc12 [Example 64, 3-[[[1-(4-Chlorobenzoyl)-5-methoxy-2-methyl-1H-indol-3-yl]methyl]hydroxyamino]-3-oxo-propanoic acid, ethyl ester]
9.4	1.3	–	–	COC(=O)CCC(=O)N(O)Cc1c(C)n(C(=O)c2ccc(Cl)cc2)c2ccc(OC)cc12 [Example 65, 4-[[[1-(4-Chlorobenzoyl)-5-methoxy-2-methyl-1H-indol-3-yl]methyl]hydroxyamino]-4-oxo-butanoic acid, methyl ester]
–	–	73	100	COc1ccc2c(c1)c(CN(O)C(=O)N(C)C)c(C)n2C(=O)c1ccc(Cl)cc1 [Example 70, 1-(4-Chlorobenzoyl)-N-[(dimethylamino)carbonyl]-N-hydroxy-5-methoxy-2-methyl-1H-indole-3-methanamine]

Second part, the molecule before the results:

Compound	IC50 [1] [µM]	IC50 [2] [µM]	inhibition at 16 µM [1] [%]	inhibition at 16 µM [2] [%]
CC(=O)N(O)Cc1ccccc1Nc1cccc(C(F)(F)F)c1 [Example 55]	5.2	0.28	–	–
CNC(=O)N(O)Cc1ccccc1Nc1cccc(C(F)(F)F)c1 [Example 56]	2.2	0.12	–	–
CCOC(=O)N(O)Cc1ccccc1Nc1cccc(C(F)(F)F)c1 [Example 57, N-Hydroxy-N-[[2-[[3-(trifluoromethyl)phenyl]amino]phenyl]methyl]carbamic acid, ethyl ester]	–	–	91	100
C=CCNC(=O)N(O)Cc1c(C)n(C(=O)c2ccc(Cl)cc2)c2ccc(OC)cc12 [Example 71, 1-(4-Chlorobenzoyl)-N-hydroxy-5-methoxy-2-methyl-N-[(2-propenylamino)carbonyl]-1H-indole-3-methanamine]	–	–	50	100
CNC(=S)N(O)Cc1c(C)n(C(=O)c2ccc(Cl)cc2)c2ccc(OC)cc12 [Example 74, 1-(4-Chlorobenzoyl)-N-hydroxy-5-methoxy-2-methyl-N-[(methylamino)thioxomethyl]-1H-indole-3-methanamine]	7.1	0.4	–	–

From patent publication US5112846A, “N-hydroxyamide, N-hydroxythioamide, hydroxyurea, and N-hydroxythiourea derivatives of selected nsaids as antiinflammatory agents” (Warner-Lambert Company, priority 1990, dated 1992)
